Source: article PMC8791944, “GLUT3 inhibitor discovery through in silico ligand screening and in vivo validation in eukaryotic expression systems” (Scientific Reports, 2022)

Biological target: T1, GLUT3 (Homo sapiens, UniProt P11169)
T1 construct: expressed in transfected cells; host or cells: Saccharomyces cerevisiae hxt0 strain EBY.S7 (fgy1)
T1 sequence (P11169 1-496): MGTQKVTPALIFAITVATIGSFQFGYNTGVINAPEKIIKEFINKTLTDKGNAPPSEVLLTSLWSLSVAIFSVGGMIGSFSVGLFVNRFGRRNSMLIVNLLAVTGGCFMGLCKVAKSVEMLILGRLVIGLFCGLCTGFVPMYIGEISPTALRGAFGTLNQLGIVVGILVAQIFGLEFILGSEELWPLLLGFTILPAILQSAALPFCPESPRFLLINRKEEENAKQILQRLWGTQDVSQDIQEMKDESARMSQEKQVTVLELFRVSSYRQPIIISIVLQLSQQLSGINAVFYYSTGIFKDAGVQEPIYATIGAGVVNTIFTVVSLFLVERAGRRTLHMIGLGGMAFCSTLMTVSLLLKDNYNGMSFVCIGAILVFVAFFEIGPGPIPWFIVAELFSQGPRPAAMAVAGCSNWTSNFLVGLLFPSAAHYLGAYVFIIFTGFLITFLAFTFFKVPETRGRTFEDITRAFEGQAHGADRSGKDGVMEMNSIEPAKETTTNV
Test: Glucose transport assay, wild-type GLUT3 expressed in hxt^0 yeast cells EBY.S7 (C^14-glucose uptake)
Type: cell-based
Settings: wild-type GLUT3 in hxt^0 yeast cells, 3 mM glucose, uptake 10 min; read-out: IC50 for GLUT3 transport inhibition
Source text: To experimentally validate the ligand candidates determined by the virtual ligand screening, we tested their effect on GLUT3 transport activity. For this, we used the recently established assay system[67] in which GLUT3 is expressed in a yeast strain devoid of endogenous hexose transporters (hxt^0) so that glucose uptake into cells relies solely on the activity of GLUT3.
We determined GLUT3 transport activity by measuring the accumulation of radioactive glucose inside whole hxt^0 yeast cells (see “Materials and methods” for details). To select an appropriate substrate concentration for transport inhibition screening, we assessed the KM of glucose for GLUT3 in hxt^0 cells. […] Indeed, functional expression of human GLUTs in hxt^0 cells often requires mutations in genes related to yeast lipid composition[65],[73] as well as single-site mutations that may favor the outward-facing conformation of the transporters[65]–[67].
Hexose transporter deficient yeast strains (hxt^0) EBY.VW4000 for expression of GLUT5, EBY.S7 (carrying the fgy1 mutation) for expression of GLUT1-3, and SDY.022 (EBY.S7 Δerg4) for expression of GLUT4 cells, and corresponding plasmids[65],[66],[73] were from the labs of Drs. Eckhard Boles and Mislav Oreb (Goethe University, Germany). Media ingredients and buffer components were from VWR or Millipore Sigma. Commercial providers for chemicals tested for GLUT3 inhibition are listed in Supplementary Table S1. C^14-glucose was from Moravek Inc (Brea, CA, USA). Cancer cell lines were from ATCC (https://www.atcc.org).
The plasmids containing functional constructs of GLUT1-5 were transformed in the corresponding hxt^0 strains[65],[66],[73] (EBY.VW4000 for GLUT5S72Y, EBY.S7 for GLUT1, GLUT2∆loopS_Q455R, GLUT3 and GLUT3S66Y, and SDY.022 for GLUT4) and grown on 2% (w/v) agar plates of the respective media supplemented with 1% (w/v) maltose. An initial culture of ~ 10 ml was started with a few colonies and grown for 2–3 days if the media was SC-uracil with 1% (w/v) maltose (GLUT1, GLUT3, GLUT4) or 1–2 days if the media was YEP with 1% (w/v) maltose and 100 µg/ml geneticin G418 (GLUT2∆loopS_Q455R and GLUT5S72Y). Cells were washed once in the corresponding media in which maltose was substituted with 0.1–2% hexose substrate for the expressing GLUT (i.e., SC-uracil, 2% (w/v) glucose for GLUT1; SC-uracil, 0.2% (w/v/) glucose for GLUT3 and GLUT4; YEP, 0.2% (w/v) glucose, 100 µg/ml geneticin G418 for GLUT2∆loopS_Q455R, and YEP, 2% (w/v) fructose for GLUT5 S72Y). Then, cells were transferred in the same media so that OD600nm ~ 0.5 and grown further for 1–2 days.
For transport activity assay, cells in the hexose media were centrifuged (1000×g, 5 min, room temperature), washed once with PBS buffer (10 mM Na2HPO4, 1.8 mM KH2PO4, 2.7 mM KCl, 137 mM NaCl, pH 7.4), and resuspended in PBS buffer at an OD600nm ~ 10; each assay contained 100 µl of this cell solution. Transport activity assay was started by adding C^14-hexose at a substrate concentration corresponding to the respective KM (5 mM glucose for GLUT1 or GLUT4, 3 mM glucose for GLUT3 or 1.5 mM glucose for GLUT3S66Y, 15 mM glucose for GLUT2∆loopS_Q455R, and 10 mM fructose for GLUT5S72Y); for determining the glucose KM in GLUT3 and GLUT3S66Y, substrate concentrations were varied accordingly. […] The filtration membranes were transferred into scintillation vials with 10 ml of Scintillation Solution (BioSafeII; Research Products International, Mount Prospect, IL, USA), and vortexed briefly. The radioactivity was determined with a scintillation counter (Tri-carb 2900TR, Perkin Elmer, USA).

SMILES: CC(=O)Nc1ccc(S(=O)(=O)Nc2ccc(Nc3cc(N(C)C)nc(C)n3)cc2)cc1 [G3iA, N-(4-{[(4-{[6-(dimethylamino)-2-methylpyrimidin-4-yl]amino}phenyl)amino]sulfonyl}phenyl)acetamide]
- IC50: 7.01 ± 1.02 µM

SMILES: COc1ccccc1-n1c(/C=C/c2ccc(O)cc2)nc2ccc(Br)cc2c1=O [G3iB, 6-bromo-2-[(E)-2-(4-hydroxyphenyl)ethenyl]-3-(2-methoxyphenyl)quinazolin-4(3H)-one]
- IC50: 12.2 ± 4 µM

SMILES: Cc1cccnc1OC1CCN(c2cc(N3CCCC3CO)ncn2)CC1 (stereo not drawn) [G3iC]
- IC50: 12.5 ± 4.4 µM

SMILES: Cc1cc(NC(=O)CCC2Cc3ccccc3NC2=O)nc(-c2ccccc2)n1 (stereo not drawn) [G3iD]
- IC50: 19.3 ± 4.7 µM

SMILES: O=C(Nc1cccc(Cl)c1)c1cccc(NC(=O)c2cccc([N+](=O)[O-])c2)c1 [G3iE, N-{3-[(3-chloroanilino)carbonyl]phenyl}-3-nitrobenzamide]
- IC50: 23.6 ± 1.9 µM

SMILES: Cc1ccccc1CN(Cc1nnc(C(C)(C)C)o1)c1ccc2nc(O)[nH]c2c1 [G3iF]
- IC50: 38.4 ± 11.8 µM
